The values that follow come from US11020449B2, “Use of the GK-1 peptide as an antitumoral and/or antimetastatic agent” (UNIVERSIDAD NACIONAL AUTÓNOMA DE MÉXICO, priority 2016, dated 2021).

In assay [1] the test system is 4T1 cells. Briefly: Survival rate in mice with 4T1 breast cancer. The conditions noted are these: log-rank test. It counts as in vivo, BALB/cAnN mice. The method, then:
As used in the following Examples of Embodiment, GK-1 was synthesized under good manufacturing practices by USV, LTD, with a purity higher than 95%. The peptide was intravenously administered to mice at a dose of 0.5 mg/kg.
Four to six weeks-old female and male BALB/cAnN mice were used, with a weight range of 17-23 g for females and 20-27 g for males. All mice were maintained in pathogen-free conditions, as required by the Mexican Official Regulation NOM-062-ZOO-1999.
J. et al., Cancer Res, 1992. […] 279(45):46659-67]. […] The administration was repeated weekly at different times.
To determine the survival rate in mice with breast cancer, 1×10^3 4T1 cells were implanted to 40 BALB/cAnN mice as described in the Example of Embodiment 1; 10 males and 10 females were included in each group (G1 and G2). The administration schedule described in the Example of Embodiment 1 was repeated weekly after a solid tumor development, and for 62 days after cell implant.

Assay [2] relates to 4T1 cells. The method, then:
The 4T1 cell line (American Type Culture Collection, Manassas, Va.) was used to induce a neoplasia emulating breast cancer; according to the natural history of the disease, metastasis to lung should be observed [Aslakson C. J. et al., Cancer Res, 1992. 52(6): 1399-405; Mi Z et al., J Biol Chem, 2004. 279(45):46659-67]. The 4T1 cell line was cultured in RPMI medium (Gibco, Grand Island, N.Y.) supplemented with 10% of heat-inactivated fetal bovine serum, 10 U/mL of penicillin, and 100 μg/mL of streptomycin, at 37° C. under 95% relative humidity and 5% CO2. Cultured cells were recovered by trypsinization (0.25% trypsin-0.53 mM EDTA) and washed three times with cold serum-free RPMI medium before subcutaneous implanting. About 1×10^3 4T1 cells were subcutaneously injected in the right mammary gland in BALB/cAnN mice. Tumor induction was determined by the appearance of 1 mm×1 mm solid tumors (palpable tumor), between 18 and 20 days after cell implantation. Once the established tumors reached that size, mice were distributed into two groups: Group 1 (G1) was intravenously administered with a solution of 10 μg of GK-1 in 100 μL of ISS (corresponding to 0.5 mg/kg); Group 2 (G2) was administered with ISS (100 μL) by the same route. The administration was repeated weekly at different times.
All animals were weighed before treatment, and tumor growth was continuously recorded. Tumor volume was calculated according to the following formula [Carlsson G. et al., J Cancer Res Clin Oncol, 1983. 105(1): 20-23]: Volume (mm^3)=πLW^2/6, where L is the largest side and W is the smallest side.
At the day 39 after cell implanting, animals were euthanized in accordance with the guidelines in the United Kingdom Coordinating Committee on Cancer Research (UKCCCR). The primary tumor, spleen, lungs, liver, and brain were dissected. In total, five separate experiments were performed.
As mentioned in the Example of Embodiment 1, once palpable tumors were developed in mice (G1: females X=6, males X=4; G2: females X=6, males X=4 per experiment), tumor volume was determined every third day for 39 days, with electronic Vernier.

For assay [3], the system named is T cell, macrophage, and dendritic cells. The conditions noted are these: in vitro; cited from earlier work.
Assay [4] has as its system dendritic cells (DCs) loaded with the MAGE antigen. The conditions noted are these: immunotherapy against murine melanoma; cited from earlier work.

Read-outs that look alike come from different tables or passages of the source.

As for “G-Y-Y-Y-P-S-D-P-N-T-F-Y-A-P-P-Y-S-A (GYYYPSDPNTFYAPPYSA; tapeworm) [GK-1]”, the “survival with respect to saline-treated mice (Kaplan-Meyer)” value in the assay on 4T1 cells [1] is “significantly increased survival”. For the same substance, the Tumor weight with 4T1 cells [2] (Exp 1, day 39) worked out at 0.825 ± 0.391 g; in the assay on 4T1 cells [2] (Exp 2, day 39) it was 0.991 ± 0.507 g; in the assay on 4T1 cells [2] (Exp 3, day 39) it was 1.150 ± 0.939 g; in the assay on 4T1 cells [2] (Exp 4, day 39), 1.477 ± 0.889 g; in the assay on 4T1 cells [2] (Exp 5, day 39), 0.587 ± 0.339 g; in the assay with 4T1 cells [2] (Total of five experiments, day 39) it was 1.044 ± 0.697 g. This substance also showed a Tumor weight in the assay with 4T1 cells [2] (day 39, text, five experiments) of 1.04 ± 0.70 g. Also, the “reduction in tumor weight with respect to untreated mice” value in the assay on 4T1 cells [2] (day 39) was 27.8%. The “tumor volume versus untreated mice” value in the assay with 4T1 cells [2] (every third day for 39 days) is recorded as “lower tumor volume than untreated mice, the difference was not statistically significant”. In assay [3], the “immune cell activation (CD80/86, MHC-II expression; IFN-γ, TNF-α, CCL2 secretion)” value was “promoting T cell, macrophage, and dendritic cells activation”. For the same substance, in assay [4], the “activation of MAGE-loaded DCs” value is “increase in the activation of these DCs”.
